Source: ChEMBL document CHEMBL5352488, “Development of novel S-N3-DABO derivatives as potent non-nucleoside reverse transcriptase inhibitors with improved potency and selectivity” (Eur J Med Chem, 2023)

Columns and labels:
[1] = Selectivity index, ratio of CC50 for cytotoxicity against human MT4 cells assessed as reduction in cell viability by MTT assay to EC50 for anti-HIV activity against wild type HIV-1 IIIB infected in human MT4 cells assessed as inhibition of virus-induced cytopathic effect by MTT assay; assay type: toxicity, cell-based; conditions: read-out: Ratio CC50/EC50
[2] = Cytotoxicity against human MT4 cells assessed as reduction in cell viability by MTT assay; assay type: toxicity, cell-based
[3] = tested on: Human immunodeficiency virus 1; assay: Anti-HIV activity against wild type HIV-1 IIIB infected in human MT4 cells assessed as inhibition of virus-induced cytopathic effect by MTT assay; assay type: functional, organism-based; conditions: Human immunodeficiency virus 1, IIIB
[4] = tested on: Human immunodeficiency virus 1; assay: Anti-HIV activity against drug resistant HIV-1 harboring Y188L mutant infected in human MT4 cells assessed as inhibition of virus-induced cytopathic effect by MTT assay; assay type: functional, organism-based; conditions: Human immunodeficiency virus 1, MT4
[5] = tested on: Human immunodeficiency virus 1; assay: Anti-HIV activity against drug resistant HIV-1 harboring E138K mutant infected in human MT4 cells assessed as inhibition of virus-induced cytopathic effect by MTT assay; assay type: functional, organism-based; conditions: Human immunodeficiency virus 1, MT4
[6] = tested on: Human immunodeficiency virus 1; assay: Anti-HIV activity against drug resistant HIV-1 harboring Y181C mutant infected in human MT4 cells assessed as inhibition of virus-induced cytopathic effect by MTT assay; assay type: functional, organism-based; conditions: Human immunodeficiency virus 1, MT4
[7] = tested on: Human immunodeficiency virus 1; assay: Anti-HIV activity against drug resistant HIV-1 harboring F227L/V106A mutant infected in human MT4 cells assessed as inhibition of virus-induced cytopathic effect by MTT assay; assay type: functional, organism-based; conditions: Human immunodeficiency virus 1, MT4
[8] = tested on: Human immunodeficiency virus 1; assay: Anti-HIV activity against drug resistant HIV-1 harboring K103N mutant infected in human MT4 cells assessed as inhibition of virus-induced cytopathic effect by MTT assay; assay type: functional, organism-based; conditions: Human immunodeficiency virus 1, MT4
[9] = tested on: Human immunodeficiency virus 1; assay: Anti-HIV activity against drug resistant HIV-1 harboring L100I mutant infected in human MT4 cells assessed as inhibition of virus-induced cytopathic effect by MTT assay; assay type: functional, organism-based; conditions: Human immunodeficiency virus 1, MT4

CCc1c(C(N=[N+]=[N-])c2ccc3ccccc3c2)nc(SC(C)C)[nH]c1=O (configuration not stated)
selectivity ratio [1]: < 8
CC50 [2]: 3.98 µM
EC50 [3]: 0.52 µM

Cc1c(C(N=[N+]=[N-])c2cccc3ccccc23)nc(SC(C)C)[nH]c1=O (configuration not stated)
EC50 [4]: > 342 µM
selectivity ratio [1]: > 1000
EC50 [5]: 1.37 µM
EC50 [6]: 186 µM
EC50 [7]: > 342 µM
CC50 [2]: > 342 µM
EC50 [8]: > 342 µM
EC50 [3]: 0.34 µM
EC50 [9]: 5.27 µM

CCc1c(C(N=[N+]=[N-])c2ccccc2)nc(SC(C)C)[nH]c1=O (configuration not stated)
EC50 [4]: 188 µM
selectivity ratio [1]: > 2770
EC50 [5]: 0.55 µM
EC50 [6]: 6.02 µM
EC50 [7]: 14.9 µM
CC50 [2]: > 379 µM
EC50 [8]: 6.03 µM
EC50 [3]: 0.14 µM
EC50 [9]: 12.2 µM

Cc1c(C(N=[N+]=[N-])c2ccc(Br)cc2)nc(SC(C)C)[nH]c1=O (configuration not stated)
selectivity ratio [1]: > 1410
CC50 [2]: > 317 µM
EC50 [3]: 0.23 µM

Cc1c(C(N=[N+]=[N-])c2ccc(Cl)cc2)nc(SC(C)C)[nH]c1=O (configuration not stated)
EC50 [4]: > 357 µM
selectivity ratio [1]: > 1650
EC50 [5]: 3.61 µM
EC50 [6]: > 357 µM
EC50 [7]: > 357 µM
CC50 [2]: > 357 µM
EC50 [8]: 61.1 µM
EC50 [3]: 0.22 µM
EC50 [9]: 11 µM

Cc1c(C(N=[N+]=[N-])c2ccc(-c3ccccc3)cc2)nc(SC(C)C)[nH]c1=O (configuration not stated)
CC50 [2]: > 319 µM
EC50 [3]: > 319 µM

CC(C)Sc1nc(C(N=[N+]=[N-])c2ccccc2)c(C(C)C)c(=O)[nH]1 (configuration not stated)
selectivity ratio [1]: > 780
CC50 [2]: > 364 µM
EC50 [3]: 0.47 µM

Cc1c(C(N=[N+]=[N-])c2ccc(OC(F)(F)F)cc2)nc(SC(C)C)[nH]c1=O (configuration not stated)
selectivity ratio [1]: > 63
CC50 [2]: > 313 µM
EC50 [3]: 4.93 µM

CCc1c(C(N=[N+]=[N-])c2cc(OC)cc(OC)c2)nc(SC(C)C)[nH]c1=O (configuration not stated)
selectivity ratio [1]: > 349
CC50 [2]: > 321 µM
EC50 [3]: 0.92 µM

COc1cc(OC)cc(C(N=[N+]=[N-])c2nc(SC(C)C)[nH]c(=O)c2C)c1 (configuration not stated)
EC50 [4]: > 333 µM
selectivity ratio [1]: > 983
EC50 [5]: 1.54 µM
EC50 [6]: 9.85 µM
EC50 [7]: 38.5 µM
CC50 [2]: > 333 µM
EC50 [8]: 107 µM
EC50 [3]: 0.34 µM
EC50 [9]: 2.62 µM

COc1cc(OC)cc(C(N=[N+]=[N-])c2nc(SC(C)C)[nH]c(=O)c2C(C)C)c1 (configuration not stated)
EC50 [4]: 63.1 µM
selectivity ratio [1]: 55
EC50 [5]: 4.56 µM
EC50 [6]: 54.7 µM
EC50 [7]: 58.9 µM
CC50 [2]: 97.6 µM
EC50 [8]: > 139 µM
EC50 [3]: 1.78 µM
EC50 [9]: 10.2 µM

CC(C)Sc1nc(C(N=[N+]=[N-])c2ccc(Cl)cc2)c(C(C)C)c(=O)[nH]1 (configuration not stated)
selectivity ratio [1]: > 367
CC50 [2]: > 331 µM
EC50 [3]: 0.9 µM

CCc1c(C(N=[N+]=[N-])c2ccc(Cl)cc2)nc(SC(C)C)[nH]c1=O (configuration not stated)
EC50 [4]: > 344 µM
selectivity ratio [1]: > 1310
EC50 [5]: 0.81 µM
EC50 [6]: 95.2 µM
EC50 [7]: > 127 µM
CC50 [2]: > 344 µM
EC50 [8]: 14.3 µM
EC50 [3]: 0.26 µM
EC50 [9]: 3.69 µM

Cc1c(C(N=[N+]=[N-])c2ccc3ccccc3c2)nc(SC(C)C)[nH]c1=O (configuration not stated)
EC50 [4]: 69.7 µM
selectivity ratio [1]: 11
EC50 [5]: 5.04 µM
EC50 [6]: 60.3 µM
EC50 [7]: 65 µM
CC50 [2]: 4.89 µM
EC50 [8]: > 154 µM
EC50 [3]: 0.44 µM
EC50 [9]: 11.3 µM

CC(C)Sc1nc(C(N=[N+]=[N-])c2ccc(-c3ccccc3)cc2)c(C(C)C)c(=O)[nH]1 (configuration not stated)
selectivity ratio [1]: < 1
CC50 [2]: 84.2 µM
EC50 [3]: > 59.2 µM

Cc1c(C(N=[N+]=[N-])c2ccccc2)nc(SC(C)C)[nH]c1=O (configuration not stated)
EC50 [4]: > 396 µM
selectivity ratio [1]: > 7190
EC50 [5]: 2.66 µM
EC50 [6]: > 396 µM
EC50 [7]: > 396 µM
CC50 [2]: > 396 µM
EC50 [8]: > 387 µM
EC50 [3]: 0.055 µM
EC50 [9]: 10.6 µM

Cc1ccc(C(N=[N+]=[N-])c2nc(SC(C)C)[nH]c(=O)c2C)cc1 (configuration not stated)
selectivity ratio [1]: 93
CC50 [2]: 7.73 µM
EC50 [3]: 0.083 µM

Cc1ccc(C(N=[N+]=[N-])c2nc(SC(C)C)[nH]c(=O)c2C(C)C)cc1 (configuration not stated)
selectivity ratio [1]: > 667
CC50 [2]: > 350 µM
EC50 [3]: 0.52 µM

CCc1c(C(N=[N+]=[N-])c2ccc(Br)cc2)nc(SC(C)C)[nH]c1=O (configuration not stated)
EC50 [4]: 160 µM
selectivity ratio [1]: > 1040
EC50 [5]: 1.86 µM
EC50 [6]: 65.2 µM
EC50 [7]: 95.7 µM
CC50 [2]: > 306 µM
EC50 [8]: 51.2 µM
EC50 [3]: 0.29 µM
EC50 [9]: 10.4 µM

CC(C)Sc1nc(C(N=[N+]=[N-])c2ccc3ccccc3c2)c(C(C)C)c(=O)[nH]1 (configuration not stated)
EC50 [4]: > 58.7 µM
selectivity ratio [1]: < 1
EC50 [5]: 0.09 µM
EC50 [6]: 1.4 µM
EC50 [7]: 7.39 µM
CC50 [2]: 4.79 µM
EC50 [8]: 3.3 µM
EC50 [3]: > 4.78 µM
EC50 [9]: 1.06 µM

Cc1ccnc2c1NC(=O)c1cccnc1N2C1CC1 [NEVIRAPINE]
EC50 [4]: > 15 µM
EC50 [6]: 7.71 µM
EC50 [7]: > 15 µM
CC50 [2]: > 15 µM

Cc1c(C(C#N)c2ccccc2)nc(SC(C)C)[nH]c1=O (configuration not stated)
EC50 [4]: > 204 µM
EC50 [5]: 0.87 µM
EC50 [7]: 21.4 µM
EC50 [3]: 0.37 µM

CCc1c(C(N=[N+]=[N-])c2ccc(-c3ccccc3)cc2)nc(SC(C)C)[nH]c1=O (configuration not stated)
EC50 [4]: 65.4 µM
EC50 [5]: 0.37 µM
EC50 [6]: 4.41 µM
EC50 [7]: 16 µM
CC50 [2]: > 308 µM
EC50 [8]: 20.9 µM
EC50 [3]: > 308 µM
EC50 [9]: 2.06 µM

Cc1cc(C)cc(C(N=[N+]=[N-])c2nc(SC(C)C)[nH]c(=O)c2C(C)C)c1 (configuration not stated)
selectivity ratio [1]: > 878
CC50 [2]: > 336 µM
EC50 [3]: 0.38 µM

CCc1c(C(N=[N+]=[N-])c2ccc(OC(F)(F)F)cc2)nc(SC(C)C)[nH]c1=O (configuration not stated)
EC50 [4]: 62.2 µM
selectivity ratio [1]: > 50
EC50 [5]: 0.26 µM
EC50 [6]: 60.4 µM
EC50 [7]: 9.71 µM
CC50 [2]: > 302 µM
EC50 [8]: 38.2 µM
EC50 [3]: 6.02 µM
EC50 [9]: 29.5 µM

CC(C)Sc1nc(C(N=[N+]=[N-])c2ccc(Br)cc2)c(C(C)C)c(=O)[nH]1 (configuration not stated)
EC50 [4]: > 32.3 µM
selectivity ratio [1]: 23
EC50 [5]: 3.69 µM
EC50 [6]: > 32.2 µM
EC50 [7]: > 32.2 µM
CC50 [2]: 32.8 µM
EC50 [8]: 8.2 µM
EC50 [3]: 1.45 µM
EC50 [9]: 1.44 µM

O=C1Nc2ccc(Cl)cc2[C@@](C#CC2CC2)(C(F)(F)F)O1 [EFAVIRENZ]
EC50 [7]: 0.28 µM

CCc1c(C(N=[N+]=[N-])c2ccc(F)cc2)nc(SC(C)C)[nH]c1=O (configuration not stated)
selectivity ratio [1]: > 956
CC50 [2]: > 360 µM
EC50 [3]: 0.38 µM

Cc1c(C(N=[N+]=[N-])c2ccc(F)cc2)nc(SC(C)C)[nH]c1=O (configuration not stated)
selectivity ratio [1]: 1090
CC50 [2]: 320 µM
EC50 [3]: 0.29 µM

Cc1cn([C@H]2C[C@H](N=[N+]=[N-])[C@@H](CO)O2)c(=O)[nH]c1=O [ZIDOVUDINE]
selectivity ratio [1]: > 236
EC50 [6]: 0.023 µM
EC50 [7]: 0.026 µM
CC50 [2]: > 7.06 µM
EC50 [8]: 0.024 µM
EC50 [9]: 0.012 µM

CC(C)Sc1nc(C(N=[N+]=[N-])c2ccc(F)cc2)c(C(C)C)c(=O)[nH]1 (configuration not stated)
selectivity ratio [1]: > 298
CC50 [2]: > 346 µM
EC50 [3]: 1.16 µM
